Results on one molecule are retold here after US20250170252A1, “QUINONE PROTECTED FORMS AND CONJUGATES” (CAMBRIDGE ENTERPRISE LIMITED, priority 2022, published 2025).

The term IC50 denotes the concentration that inhibits the measured activity by half.

The target of one data set is T1, 5-LO (Homo sapiens, UniProt P09917).
T1 sequence (P09917 1-674): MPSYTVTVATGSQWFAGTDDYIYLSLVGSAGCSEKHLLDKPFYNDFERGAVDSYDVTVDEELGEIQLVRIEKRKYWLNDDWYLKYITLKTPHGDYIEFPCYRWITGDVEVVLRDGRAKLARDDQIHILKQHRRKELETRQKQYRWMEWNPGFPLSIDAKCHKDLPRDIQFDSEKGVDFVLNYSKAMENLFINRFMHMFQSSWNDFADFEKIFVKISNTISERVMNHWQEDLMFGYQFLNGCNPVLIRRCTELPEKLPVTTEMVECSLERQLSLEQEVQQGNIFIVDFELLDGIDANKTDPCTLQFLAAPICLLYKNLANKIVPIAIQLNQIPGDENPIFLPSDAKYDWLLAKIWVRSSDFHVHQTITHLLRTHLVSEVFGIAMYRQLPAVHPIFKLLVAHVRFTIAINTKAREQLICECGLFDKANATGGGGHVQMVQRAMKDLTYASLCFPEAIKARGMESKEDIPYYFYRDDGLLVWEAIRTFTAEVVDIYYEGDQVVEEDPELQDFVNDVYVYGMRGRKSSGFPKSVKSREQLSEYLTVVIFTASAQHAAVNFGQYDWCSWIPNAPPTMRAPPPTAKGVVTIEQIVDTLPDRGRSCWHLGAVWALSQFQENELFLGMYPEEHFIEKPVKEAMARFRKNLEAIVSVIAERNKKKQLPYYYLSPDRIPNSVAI
Particulars: previous work, Chem. Sci. 2018; cited from earlier work.

The subject of the next data set is HL-60. Put plainly: Toxicity with/without β-glucuronidase, HL-60. Particulars: Homo sapiens, HL-60; read-out: IC50 β-lapachone, 1. It counts as cell-based. The method, then:
(§1) Assays assessing cytotoxicity of β-lapachone and derivatives were performed by CellTiter-Blue assay (Promega) according to the manufacturer's instructions. Briefly, adherent cancer-cell lines were plated at 20,000 cells/well in 96 well plates or suspension cell lines were plated at a concentration of 2×10^5 cells/mL in 24 well plates. Compound stocks in media were made by dilution of DMSO stocks containing the compound of interest to obtain a final in-plate DMSO concentration of only 0.1%. Incubation was performed for 48 h. Following incubation, media was replaced with media containing CellTiter-Blue (Promega) in 1:10 dilution and the plates were incubated for 1.5-4 h. The fluorescence of the plates was recorded (excitation 555 nm, emission 585 nm, MiniMax i3x Reader, Molecular Devices).
(§2) Cell viability was calculated by division of the fluorescence intensity of treated wells by that of the calculated average fluorescence intensity of replicate negative control wells containing cells with 0.1% DMSO only. Values and reported error bars represent the mean and standard error of the mean of three triplicate repeats for each concentration tested. IC50 values were calculated using GraphPad Prism 8 software.
(§3) The potential of compound 37a, glucuronide-PHB-BL, as a prodrug was investigated. As discussed above, at physiological pH the compound has a relatively slow-release rate. Toxicity of Gluc-PHB-BL 37a was tested against a range of cell lines with and without added β-glucuronidase. Addition of the enzyme mimics conditions of the solid tumour environment.

For data set [1], the system named is HeLa (cervical cancer cell line). Put plainly: Viability assay (CellTiter-Blue), HeLa. It counts as cell-based. The note with it: Homo sapiens. The method, then: as §1, with “MiniMax i3x” left out, “Devices). Cell viability was calculated by division of the fluorescence intensity of treated wells by that of the calculated average fluorescence intensity of replicate negative control wells containing cells with 0.1% DMSO only. Values and reported error bars represent the mean and standard error of the mean of three triplicate repeats for each concentration tested.” for “Devices).”
For orientation: Resazurin is reduced to fluorescent resorufin, in cell work by metabolically active cells.

A further data set concerns MOLM-13. As to the kind of experiment: Toxicity with/without β-glucuronidase, MOLM-13. Type of data set: cell-based. Particulars: Homo sapiens, MOLM-13; read-out: IC50 β-lapachone, 1. As to the method:
as §1, §2, §3

For a further data set, the system named is HeLa. Put plainly: Toxicity with/without β-glucuronidase, HeLa. It counts as cell-based. The note with it: Homo sapiens, read-out: IC50 β-lapachone, 1. The method, then:
as §1, §2, §3

A further data set relates to ovine blood. Put plainly: Methaemoglobin analysis in sheep's blood. The note with it: after 1 h of incubation. Type of data set: cell-based. As to the method: Defibrinated Oxoid™ sheep's blood (ThermoScientific) was diluted to a 5% v/v suspension in PBS pH 7.4. In a 96 well microtiter plate, 150 μL of blood suspension was added to 50 μL of serially diluted compound in PBS containing a 4× stock of each compound of interest. Serial dilution of compounds from DMSO stocks into PBS was performed to achieve an in-plate DMSO concentration of 0.1%. PBS buffer alone was used as a negative control. Three replicates were performed for each compound concentration analysed. The plate was incubated for the specified time at 37° C. The plate was then centrifuged at 3,500 rpm for 5 min. The supernatant was removed and cells lysed by resuspension in 100 μL of a solution of Triton-X-100 (1%) in PBS. Following this 80 μL of lysed cell contents were transferred to a second microtiter plate for UV measurement. To determine methaemoglobin increase, UV absorbance was measured immediately at 630 nm (MiniMax i3x Imager, Molecular Devices). Methaemoglobin increase was determined by (A630−A^0630)/(A^0630)×100, where A630 is the absorbance of the test well at 630 nm, and A^0630 is the absorbance of the negative control at 630 nm. Mean values and standard error of the mean of three independent replicates are plotted.

The next data set has as its system HL-60 cells. As to the kind of experiment: N-acetyl cysteine cytotoxicity assay. Type of data set: cell-based. The method, then: For assays involving cytotoxicity of β-lapachone derivatives with and without antioxidant N—-acetyl cysteine, HL-60 cells were plated into 24 well plates at a concentration of 2.5×10^5 cells/mL in 450 μL. To each well was then added 25 μL of drug diluted in PBS to obtain the correct in-plate drug concentration, and 25 μL of PBS or a stock of N-acetyl cysteine at 12 mM in PBS. DMSO was maintained at an in-plate concentration of 0.1%. After 96 h incubation, toxicity was assessed by counting of live cells using the Trypan Blue exclusion method with a Countess II Automated Cell Counter (ThermoFisher Scientific) according to the manufacturer's instructions. Cell viability was determined by division of average live cell number of treated wells by average live cell number for control wells treated with 0.1% DMSO. […] Values recorded are the mean of three repeat wells, with error bars representing the standard error of the mean for each concentration tested.

For data set [2], the system named is MCF-7 (breast cancer cell line). Put plainly: Viability assay (CellTiter-Blue), MCF-7. Particulars: Homo sapiens, MCF7. Type of data set: cell-based.

`CC1(C)CCC2=C(O1)c1ccccc1C(=O)C2=O` [Compound 1, β-lapachone, reference compound]: the “inhibition of 5-LO” value on 5-LO was “strongly inhibits”. Further, the IC50 with HL-60 amounted to 4.33 µM; in data set [1] it was 4.2 µM; with MOLM-13, 12.1 µM; with HeLa, 4.26 µM; in the data set on HL-60 cells (Homo sapiens, HL-60, HL-60, without NAC) it was 0.47 ± 0.26 µM; in data set [2] it was 1.9 µM. In addition, the “lowest dose concentration at which methaemoglobin formation is detectable” value in the data set on ovine blood came to 10 µM. Besides, the “change of IC50 upon NAC addition” value in the data set on HL-60 cells (HL-60) is listed as “more than doubled”.
